Source: article PMC4955970, “Stable, synthetic analogs of diadenosine tetraphosphate inhibit rat and human P2X3 receptors and inflammatory pain” (Molecular Pain, 2016)

Biological target: T1, native P2X3Rs / P2X2/3Rs in NG neurons (Rattus norvegicus, UniProt P49653+P49654)
T1 construct: effects of AppNHppA on native P2X3Rs in TG, DRG, and NG neurons were investigated; while NG neurons express heteromeric P2X2/3Rs subunits; endogenous in cells; host or cells: cultured rat nodose ganglion (NG) neurons
T1 sequence (P49654 1-397): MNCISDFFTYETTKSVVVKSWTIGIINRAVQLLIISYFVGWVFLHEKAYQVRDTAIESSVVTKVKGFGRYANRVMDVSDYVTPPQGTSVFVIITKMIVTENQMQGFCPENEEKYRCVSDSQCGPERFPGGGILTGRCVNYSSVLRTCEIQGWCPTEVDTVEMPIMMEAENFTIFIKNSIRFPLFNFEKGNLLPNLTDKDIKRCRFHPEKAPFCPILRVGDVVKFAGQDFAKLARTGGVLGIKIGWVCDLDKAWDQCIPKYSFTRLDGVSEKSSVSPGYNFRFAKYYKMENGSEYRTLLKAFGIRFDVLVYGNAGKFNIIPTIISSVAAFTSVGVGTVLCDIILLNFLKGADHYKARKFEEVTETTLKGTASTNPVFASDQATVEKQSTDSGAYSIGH
T1 sequence (P49653 1-472): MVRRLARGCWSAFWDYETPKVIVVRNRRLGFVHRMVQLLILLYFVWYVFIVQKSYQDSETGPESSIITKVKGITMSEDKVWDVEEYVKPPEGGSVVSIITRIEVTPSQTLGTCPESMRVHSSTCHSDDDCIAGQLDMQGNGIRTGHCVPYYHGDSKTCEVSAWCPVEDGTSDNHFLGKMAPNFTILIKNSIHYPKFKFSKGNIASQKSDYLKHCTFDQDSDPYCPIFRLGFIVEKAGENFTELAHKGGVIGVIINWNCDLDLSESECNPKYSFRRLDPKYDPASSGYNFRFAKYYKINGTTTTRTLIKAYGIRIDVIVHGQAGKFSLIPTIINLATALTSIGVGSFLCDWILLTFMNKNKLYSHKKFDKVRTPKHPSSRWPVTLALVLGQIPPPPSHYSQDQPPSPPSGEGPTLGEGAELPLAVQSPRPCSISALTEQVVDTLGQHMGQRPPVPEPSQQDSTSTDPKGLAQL
Experiment: Whole-cell recording of α,β-meATP currents in cultured nodose ganglion (NG) neurons
Format: cell-based
Conditions: read-out: inhibition of sustained residual component in NG neurons
Procedure: Rat trigeminal, nodose, or dorsal root ganglion (TG, NG, and DRG, respectivley) neurons in culture were prepared as described previously.[46],[47] Neurons were plated on poly-L-lysine (0.2 mg/ml)-coated Petri dishes and cultured for one to two days under an atmosphere containing 5% CO2. Cells were used within two days of plating when they lacked processes. HEK293T cells were prepared as reported previously[32],[48] and transfected with rat or human full-length P2X3 cDNA subcloned into pIRES2-EGFP (Clontech, Mountain View, CA, USA).
TG, NG, DRG, or HEK cells were recorded in the whole-cell configuration while being continuously superfused (at 2 ml/min) with control solution containing (in mM): 152 NaCl, 5 KCl, 1 MgCl2, 2 CaCl2, 10 glucose, and 10 HEPES; pH was adjusted to 7.4 with NaOH and osmolarity was adjusted to 320 mOsM with glucose. […] Responses to selective P2X3R agonist α,β-methylene-ATP (α,β-meATP; resistant to ectoATPase hydrolysis, Sigma-Aldrich) were measured using an EPC-9 amplifier operated by HEKA Patch Master software (HEKA Electronik, Germany). Cells were voltage-clamped at −70 mV. In most cells, series resistance was compensated by 80%. To determine EC50 values, dose-response curves were constructed for α,β-meATP by administering different agonist doses same cells and fitting data to a logistic equation (Origin 8.0, Microcal, Northampton, MA). […]

- inhibition at 1 µM: 2 ± 4%
Compound: Nc1ncnc2c1ncn2[C@@H]1O[C@H](COP(=O)(O)OP(=O)(O)NP(=O)(O)OP(=O)(O)OC[C@H]2O[C@@H](n3cnc4c(N)ncnc43)[C@H](O)[C@@H]2O)[C@@H](O)[C@H]1O [AppNHppA, diadenosine 5′,5′′′-P^1,P^4-(β,γ-imido)tetraphosphate]
